# Measured values published in patent US20190307783A1, “USE OF ANTIVIRALS TO INHIBIT PROTOZOAN VIRUSES” (priority 2016, published 2019).
# Where “and” joins values, the source holds several entries; their conditions need not be identical. Identical values can stand only once.
# Assays:
# LRV2 = assay: Virus levels in L. major strain 5-ASKH bearing LRV2; assay type: cell-based, Leishmania major; settings: data not shown
# Text: A second line of inquiry would of course be the development of anti-LRV1 agents with improved potency.
# [1] = HPLC test of 2CMA-TP degradation during the RDRP reaction; assay type: physicochemical; settings: 1 hr incubation, 300 μM, n=3
# Method: Incubation of the three LRV1 populations with 2CMA-TP reduced synthesis of both the full-length and small RDRP products (FIG. 22A, FIG. 22B, FIG. 23A, FIG. 23B, and FIG. 24). The synthesis of each product was quantitated and normalized to that obtained with drug-free controls, from which IC50s were calculated (Table 3). […] We were concerned that this arose artificially from 2CMA-TP degradation during the assay.
# To study inhibition of the viral RDRP by 2CMA-TP, varying amounts of the compound were added to standard RDRP reaction mixtures. 2CMA-TP was custom synthesized by Jena Bioscience, and its identity was confirmed using electrospray ionization with a Fourier-transform mass spectrometer in negative ion mode (Thermo Scientific). The stock concentration of 2CMA-TP was calculated by UV absorption at 260 nm, assuming that its molar extinction coefficient was identical to ATP. To measure the amount of 2CMA-TP which is non-specifically hydrolyzed over the course of an RDRP reaction, mock reactions were run using LRV1− gradient fractions, cold UTP, and 300 μM 2CMA-TP. The 20-μL reactions were diluted to 80 μL with distilled water and immediately analyzed by HPLC as described below.
# [2] = test system: LRV1+ Lgy M4147 parasites; assay: Intracellular 2CMA-TP accumulation and retention in parasites (HPLC); assay type: in vitro ADME, Leishmania guyanensis; settings: for Intracellular 2CMA-TP concentration: 18 hours, n=4
# Text: To account for the relative sensitivity of Lgy LRV1 to 2CMA compared to the insensitivity of LRV1 RDRP activity to inhibition by 2CMA-TP, we hypothesized that parasites take up and activate 2CMA, accumulating high 2CMA-TP concentrations. We first identified an HPLC protocol capable of resolving both synthetic 2CMA-TP and a smaller peak we presume to be 2CMA-DP from natural ribonucleotides and the internal standard, dGTP (FIG. 23A and FIG. 23B). Standard mixtures of known concentration were used to generate a standard curve relating peak area to 2CMA-TP amounts (FIG. 30). We then tested several protocols for extracting parasite nucleotides and determined that extraction with 1:1 acetonitrile:water performed best. Using this protocol, we compared the nucleotide profiles of LRV1+ Lgy grown in the presence or absence of 10 μM extracellular 2CMA for 18 hours, a time chosen because it corresponds to about two rounds of parasite replication. Under these conditions, we observed a peak co-eluting with synthetic 2CMA-TP that was absent from untreated parasites (FIG. 25B), establishing the parasite's capacity to phosphorylate 2CMA.
# We then measured steady-state levels of intracellular 2CMA-TP following incubation of late-log-phase parasites with 2CMA for 18 hours. To determine the intracellular concentration of 2CMA-TP under these conditions, we measured the average volume of the parasites (roughly 23 fL). […] Over this range of concentrations, internal 2CMA-TP levels exceeded external 2CMA concentrations by 40- to 80-fold (FIG. 26A and FIG. 26B), attesting to the potency of the parasite's purine salvage pathway.
# Cultures of WT or GFP-expressing LRV1+ Lgy M4147 were seeded at 2×10^5 cells/mL and analyzed when they reached early, mid, or late log phase. From each sample, one aliquot was analyzed by light scattering on a flow-cytometer, while another was immobilized by treatment with 20 mM sodium azide and imaged by spinning-disk confocal microscopy {Ellenberger, 1987}. Cell volumes were calculated using a custom ImageJ script {Schindelin, 2012}. A standard curve relating forward scattering intensity to measured volume was developed and used to estimate metabolite concentrations (FIG. 29).
# For drug metabolism studies, 10^8 late-log phase parasites in 5 mL of Schneider's medium were treated with indicated drug concentrations for 20 hours. For accumulation assays, 10^8 cells were harvested immediately. In ‘washout’ experiments, one 5 mL culture was grown for each replicate of each time point. These cultures were spun down, resuspended in drug-free medium, centrifuged again, and finally suspended in 5 mL drug-free Schneider's medium. After 2, 4, or 8 hours, nucleotides were extracted from 10^8 parasites from individual washed cultures and analyzed by HPLC.
# For each sample, cells were collected by centrifugation at 2200×g, 4° C. for 5 minutes, re-suspended in 1 mL ice-cold PBS and re-centrifuged. The cell pellet was gently re-suspended in 100 μL ice-cold 0.5×PBS plus 7 nmol dGTP as a recovery and elution standard. […] Cells were immediately lysed by rapidly re-suspending in 900 μL ice-cold 5:4 acetonitrile:water mixture {Au, 1989} and vortexing continuously for 5 min at 4° C. Insoluble debris was pelleted at 16,000×g for 5 minutes and the clarified extract was transferred to a fresh tube. The solvent was removed by evaporation in a SAVANT SpeedVac concentrator (Thermo Scientific) with the heater off and the vacuum pump refrigeration on. Samples were re-suspended with 80 μL distilled water, flash frozen, and stored at −80° C. prior to HPLC analysis.
# Nucleoside di- and tri-phosphates were separated by isocratic HPLC as described {Moal, 1989}. […]
smiles,measurement,setting,value
"C[C@@]1(O)[C@H](O)[C@@H](COP(=O)(O)OP(=O)(O)OP(=O)(O)O)O[C@H]1n1cnc2c(N)ncnc21 [Compound 2CMA-TP, 2′-C-methyladenosine triphosphate]","Inhibition of LRV2 virus levels, in words",LRV2,no inhibition of virus levels
same,2CMA-TP degraded (to apparent 2CMA-DP) during the assay,[1],3.7±0.6%
same,Intracellular 2CMA-TP concentration,[2]; 1 μM external 2CMA,78 ± 9.0 µM and 80 µM
same,Intracellular 2CMA-TP concentration,[2]; 3 μM external 2CMA,152 ± 43 µM
same,Intracellular 2CMA-TP concentration,[2]; 10 μM external 2CMA,410 ± 110 µM and 410 µM
same,Accumulated 2CMA-TP retained,[2]; 4 hours in drug-free medium after 18 hours in 10 μM 2CMA,approximately 50%
same,Intrinsic 8 hour 2CMA-TP concentration,"[2]; 8 hours in drug-free medium, corrected for population growth",230 ± 130 µM
same,Average 2CMA-TP concentration after washout,"[2]; 8 hours in drug-free medium, not corrected for parasite replication",170 ± 100 µM
